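1) Cells in 96-well plates. 2) Compound, 48 h, 5 concentrations. 3) Linear interpolation between surrounding doses. 4) Unreached endpoint = highest concentration. GI50 is the concentration that inhibits growth by half.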 Active and inactive are the calls of the source. No stated cut-off is given here; in the data, active = GI50 up to about 1.1 µM and inactive = higher.
How the values were obtained:
Test in all cases: NCI-60 cell line screen, 48 h
ACHN = test system: ACHN
KM12 = test system: KM12
UO-31 = test system: UO-31
SW-620 = test system: SW-620
NCI-H226 = test system: NCI-H226
UACC-257 = test system: UACC-257
Malme-3M = test system: Malme-3M
SF-539 = test system: SF-539
HCT-116 = test system: HCT-116
A498 = test system: A498
CAKI-1 = test system: CAKI-1
SK-MEL-28 = test system: SK-MEL-28
BT-549 = test system: BT-549
CCRF-CEM = test system: CCRF-CEM
HCT-15 = test system: HCT-15
MOLT-4 = test system: MOLT-4
NCI/ADR-RES = test system: NCI/ADR-RES
LOX IMVI = test system: LOX IMVI
SF-268 = test system: SF-268
SNB-19 = test system: SNB-19
UACC-62 = test system: UACC-62
HOP-92 = test system: HOP-92
RXF 393 = test system: RXF 393
EKVX = test system: EKVX
DU-145 = test system: DU-145
SNB-75 = test system: SNB-75
OVCAR-3 = test system: OVCAR-3
MCF7 = test system: MCF7
U-251 = test system: U-251
PC-3 = test system: PC-3
MDA-MB-435 = test system: MDA-MB-435
OVCAR-5 = test system: OVCAR-5
SK-OV-3 = test system: SK-OV-3
IGROV-1 = test system: IGROV-1
Hs-578T = test system: Hs-578T
SF-295 = test system: SF-295
K562 = test system: K562
A549 = test system: A549
M14 = test system: M14
HCC 2998 = test system: HCC 2998
NCI-H23 = test system: NCI-H23
TK-10 = test system: TK-10
MDA-MB-231 = test system: MDA-MB-231
HL-60 = test system: HL-60
786-0 = test system: 786-0
HT-29 = test system: HT-29
MDA-N = test system: MDA-N
NCI-H522 = test system: NCI-H522
SK-MEL-5 = test system: SK-MEL-5
OVCAR-8 = test system: OVCAR-8
OVCAR-4 = test system: OVCAR-4
SK-MEL-2 = test system: SK-MEL-2
HOP-62 = test system: HOP-62
SN12C = test system: SN12C
COLO 205 = test system: COLO 205
RPMI-8226 = test system: RPMI-8226
SR = test system: SR
T47D = test system: T47D
NCI-H460 = test system: NCI-H460

For `Cc1cc(=O)n2nc(CSc3nnc(Sc4cc(O)ccc4O)s3)sc2n1`, the GI50 (ACHN) was > 100 µM (inactive), the GI50 (KM12) was > 100 µM (inactive) and the GI50 (UO-31) was > 100 µM (inactive). For the same molecule, the GI50 (SW-620) was 22.8 µM (inactive), the GI50 (NCI-H226) was > 100 µM (inactive) and the GI50 (UACC-257) was > 100 µM (inactive). For the same molecule, the GI50 (Malme-3M) was 40.3 µM (inactive), the GI50 (SF-539) was > 100 µM (inactive) and the GI50 (HCT-116) was 19.7 µM (inactive). The GI50 (A498) was > 100 µM (inactive), the GI50 (CAKI-1) was > 100 µM (inactive) and the GI50 (SK-MEL-28) was 54.1 µM (inactive). The GI50 (BT-549) was 39.3 µM (inactive), the GI50 (CCRF-CEM) was 22.6 µM (inactive) and the GI50 (HCT-15) was greater than 100 µM. For the same molecule, the GI50 (MOLT-4) was 24.4 µM (inactive), the GI50 (NCI/ADR-RES) was > 100 µM (inactive) and the GI50 (LOX IMVI) was 21.7 µM (inactive). The GI50 (SF-268) was 54.6 µM (inactive), the GI50 (SNB-19) was > 100 µM (inactive) and the GI50 (UACC-62) was 50 µM (inactive). For the same molecule, the GI50 (HOP-92) was 35.4 µM (inactive), the GI50 (RXF 393) was 51.6 µM (inactive) and the GI50 (EKVX) was 99.3 µM (inactive). The GI50 (DU-145) was > 100 µM (inactive), the GI50 (SNB-75) was > 100 µM (inactive) and the GI50 (OVCAR-3) was 34.4 µM (inactive). For the same molecule, the GI50 (MCF7) was 14.2 µM (inactive), the GI50 (U-251) was 35.8 µM (inactive) and the GI50 (PC-3) was > 100 µM (inactive). For the same molecule, the GI50 (MDA-MB-435) was 18.5 µM (inactive), the GI50 (OVCAR-5) was > 100 µM (inactive) and the GI50 (SK-OV-3) was > 100 µM (inactive). For the same molecule, the GI50 (IGROV-1) was > 100 µM (inactive), the GI50 (Hs-578T) was 44.9 µM (inactive) and the GI50 (SF-295) was > 100 µM (inactive). For the same molecule, the GI50 (K562) was 21.5 µM (inactive), the GI50 (A549) was > 100 µM (inactive) and the GI50 (M14) was 79.1 µM (inactive). The GI50 (HCC 2998) was > 100 µM (inactive), the GI50 (NCI-H23) was > 100 µM (inactive) and the GI50 (TK-10) was > 100 µM (inactive). For the same molecule, the GI50 (MDA-MB-231) was 34.9 µM (inactive), the GI50 (HL-60) was 26.4 µM (inactive) and the GI50 (786-0) was 41.3 µM (inactive). For the same molecule, the GI50 (HT-29) was > 100 µM (inactive), the GI50 (MDA-N) was 18.6 µM (inactive) and the GI50 (NCI-H522) was 20.4 µM (inactive). For the same molecule, the GI50 (SK-MEL-5) was 64.1 µM (inactive), the GI50 (OVCAR-8) was 67.1 µM (inactive) and the GI50 (OVCAR-4) was 54.7 µM (inactive). For the same molecule, the GI50 (SK-MEL-2) was > 100 µM (inactive), the GI50 (HOP-62) was > 100 µM (inactive) and the GI50 (SN12C) was 58.1 µM (inactive). For the same molecule, the GI50 (COLO 205) was 68.5 µM (inactive), the GI50 (RPMI-8226) was 24.5 µM (inactive) and the GI50 (SR) was 28.3 µM (inactive). For the same molecule, the GI50 (T47D) was 32.1 µM (inactive) and the GI50 (NCI-H460) was > 100 µM (inactive).

For `C=C1CCC(O)C/C1=C/C=C1\CCCC2(C)C1CCC2C(C)CCCC(C)C` (stereo not drawn), the GI50 (ACHN) was 16 µM (inactive), the GI50 (KM12) was 20.6 µM (inactive) and the GI50 (UO-31) was 14.6 µM (inactive). For the same molecule, the GI50 (SW-620) was 16.7 µM (inactive), the GI50 (NCI-H226) was 16 µM (inactive) and the GI50 (UACC-257) was 17 µM (inactive). The GI50 (Malme-3M) was 18 µM (inactive), the GI50 (SF-539) was 20.1 µM (inactive) and the GI50 (HCT-116) was 15.2 µM (inactive). The GI50 (A498) was 21.3 µM (inactive), the GI50 (CAKI-1) was 19.8 µM (inactive) and the GI50 (SK-MEL-28) was 16.6 µM (inactive). The GI50 (BT-549) was 19.5 µM (inactive), the GI50 (CCRF-CEM) was 24.5 µM (inactive) and the GI50 (HCT-15) was 17.1 µM. The GI50 (MOLT-4) was 20.2 µM (inactive), the GI50 (NCI/ADR-RES) was 18.2 µM (inactive) and the GI50 (LOX IMVI) was 17.9 µM (inactive). For the same molecule, the GI50 (SF-268) was 23 µM (inactive), the GI50 (SNB-19) was 19.1 µM (inactive) and the GI50 (UACC-62) was 18.8 µM (inactive). The GI50 (HOP-92) was 17.7 µM (inactive), the GI50 (RXF 393) was 18.5 µM (inactive) and the GI50 (EKVX) was 19 µM (inactive). The GI50 (DU-145) was 20.9 µM (inactive), the GI50 (SNB-75) was 17.4 µM (inactive) and the GI50 (OVCAR-3) was 18.5 µM (inactive). The GI50 (MCF7) was 12.9 µM (inactive), the GI50 (U-251) was 18.6 µM (inactive) and the GI50 (PC-3) was 18.8 µM (inactive). For the same molecule, the GI50 (MDA-MB-435) was 16.3 µM (inactive), the GI50 (OVCAR-5) was 20.3 µM (inactive) and the GI50 (SK-OV-3) was 22.8 µM (inactive). The GI50 (IGROV-1) was 17.3 µM (inactive), the GI50 (Hs-578T) was 17.6 µM (inactive) and the GI50 (SF-295) was 19.6 µM (inactive). The GI50 (K562) was 21.2 µM (inactive), the GI50 (A549) was 19.6 µM (inactive) and the GI50 (M14) was 18 µM (inactive). For the same molecule, the GI50 (HCC 2998) was 21.2 µM (inactive), the GI50 (NCI-H23) was 18.5 µM (inactive) and the GI50 (TK-10) was 12.3 µM (inactive). For the same molecule, the GI50 (MDA-MB-231) was 19.9 µM (inactive), the GI50 (HL-60) was 23.2 µM (inactive) and the GI50 (786-0) was 16.7 µM (inactive). The GI50 (HT-29) was 15.3 µM (inactive), the GI50 (MDA-N) was 18 µM (inactive) and the GI50 (NCI-H522) was 17.5 µM (inactive). The GI50 (SK-MEL-5) was 19.4 µM (inactive), the GI50 (OVCAR-8) was 18.1 µM (inactive) and the GI50 (OVCAR-4) was 18.1 µM (inactive). For the same molecule, the GI50 (SK-MEL-2) was 18.6 µM (inactive), the GI50 (HOP-62) was 19.5 µM (inactive) and the GI50 (SN12C) was 16.6 µM (inactive). For the same molecule, the GI50 (COLO 205) was 19 µM (inactive), the GI50 (RPMI-8226) was 23.8 µM (inactive) and the GI50 (SR) was 18.5 µM (inactive). The GI50 (T47D) was 19 µM (inactive) and the GI50 (NCI-H460) was 20.4 µM (inactive).

From ChEMBL document CHEMBL1201862, “PubChem BioAssay data set” (2004)
